Legend:
[1] = target: T1, aspartate transcarbamylase (ATCase) domain of CAD (Homo sapiens, UniProt P27708); assay: initial-rate kinetics of purified MBP-ATCase, aspartate titration in excess CP; assay type: biochemical; parameters: residues 1,915–2,225 of human CAD, N-terminal 6×His-tagged MBP fusion (MBP-ATCase)
T1 sequence (P27708 1915-2225): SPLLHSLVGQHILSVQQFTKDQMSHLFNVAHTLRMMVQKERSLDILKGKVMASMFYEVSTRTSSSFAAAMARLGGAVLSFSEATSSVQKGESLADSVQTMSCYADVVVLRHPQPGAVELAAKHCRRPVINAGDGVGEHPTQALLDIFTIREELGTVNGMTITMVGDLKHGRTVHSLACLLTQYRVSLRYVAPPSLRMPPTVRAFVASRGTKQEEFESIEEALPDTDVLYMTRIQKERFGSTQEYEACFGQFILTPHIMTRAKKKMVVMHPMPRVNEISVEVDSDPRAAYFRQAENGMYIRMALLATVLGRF

[2] = target: T1, aspartate transcarbamylase (ATCase) domain of CAD; assay: biochemical
[3] = target: T1, aspartate transcarbamylase (ATCase) domain of CAD; assay: initial-rate kinetics of purified MBP-ATCase, CP titration in excess aspartate (Michaelis-Menten); assay type: biochemical; parameters: residues 1,915–2,225 of human CAD, N-terminal 6×His-tagged MBP fusion (MBP-ATCase)
Description: initial-rate kinetics of purified MBP-ATCase, CP titration in excess aspartate (Michaelis-Menten) on aspartate transcarbamylase (ATCase) domain of CAD | relative initial enzymatic rates of MBP-ATCase in excess aspartate and a titration of CP.

[4] = target: T1, aspartate transcarbamylase (ATCase) domain of CAD; assay: colorimetric carbamoyl-aspartate formation assay with purified MBP-ATCase, CP titration at […] aspartate; assay type: biochemical; parameters: residues 1,915–2,225 of human CAD, N-terminal 6×His-tagged MBP fusion (MBP-ATCase)
[5] = target: the molecule itself; assay: SEC; affinity-purified MBP-ATCase on Superdex 200 16/600 in 20 mM Tris-HCl pH 7.2, 100 mM NaCl, 2% glycerol, 0.2 mM TCEP; trimer

N[C@@H](CC(=O)O)C(=O)O [aspartate]
initial-rate kinetics of purified MBP-ATCase, aspartate titration in excess CP [1]: we measured initial enzymatic rates of MBP-ATCase in excess CP, a titration of aspartate, and three concentrations of succinate

O=C(O)CCC(=O)O [succinate]
IC50 [2]: 1350 µM

NC(=O)OP(=O)(O)O [carbamoyl phosphate]
initial-rate kinetics of purified MBP-ATCase, CP titration in excess aspartate [3]: relative initial enzymatic rates of MBP-ATCase in excess aspartate and a titration of CP. This showed saturation kinetics

O=C(O)C[C@H](NC(=O)CP(=O)(O)O)C(=O)O [PALA]
colorimetric carbamoyl-aspartate formation assay with purified MBP-ATCase, CP ti [4]: initial rates were dose-dependently decreased with nanomolar doses of the classical ATCase inhibitor, PALA (N-phosphonacetyl-L-aspartate)

B1: ATCase domain of human CAD fused N-terminally to a 6×His-tagged maltose binding protein (MBP-ATCase) (domain or fragment, UniProt P27708 1915-2225, looked up)
chain: SPLLHSLVGQHILSVQQFTKDQMSHLFNVAHTLRMMVQKERSLDILKGKVMASMFYEVSTRTSSSFAAAMARLGGAVLSFSEATSSVQKGESLADSVQTMSCYADVVVLRHPQPGAVELAAKHCRRPVINAGDGVGEHPTQALLDIFTIREELGTVNGMTITMVGDLKHGRTVHSLACLLTQYRVSLRYVAPPSLRMPPTVRAFVASRGTKQEEFESIEEALPDTDVLYMTRIQKERFGSTQEYEACFGQFILTPHIMTRAKKKMVVMHPMPRVNEISVEVDSDPRAAYFRQAENGMYIRMALLATVLGRF
notes: Order of the construct: 6×His, SSG linker, MBP, two SSG linkers, TEV protease site, GS linker, CAD 1915-2225; in pET-28a(+); also called 6×His-tagged MBP-ATCase; human ATCase; source: E. coli BL21, autoinduction medium, purified (HisPur cobalt resin, SEC on Superdex 200); not shown: His6, N-terminal, kept; MBP, N-terminal, kept
stoichiometry N [5]: 3
